Measurements from ChEMBL document CHEMBL4190345, “Synthesis and biological evaluation of new substituted thioglycolurils, their analogues and derivatives” (Eur J Med Chem, 2017).

How the values were obtained:
RD = assay: Cytotoxicity in human RD cells assessed as inhibition of cell growth incubated for 72 hrs by MTT assay; assay type: functional, cell-based
A549 = assay: Cytotoxicity in human A549 cells assessed as inhibition of cell growth incubated for 72 hrs by MTT assay; assay type: functional, cell-based; details: A549, 72 h
[1] = Cytotoxicity in human […] cells assessed as inhibition of cell growth incubated for 72 hrs by MTT assay; assay type: functional, cell-based
MCF7 = assay: Cytotoxicity in human MCF7 cells assessed as inhibition of cell growth incubated for 72 hrs by MTT assay; assay type: functional, cell-based; details: MCF7, 72 h
HEK293 = assay: Cytotoxicity in human HEK293 cells assessed as inhibition of cell growth incubated for 72 hrs by MTT assay; assay type: cell-based
Venturia inaequalis = assay: Fungicidal activity against Venturia inaequalis grown under potato-saccharose agar assessed as inhibition of mycelial radial growth at 30 mg/l incubated for 72 hrs; assay type: functional; details: read-out: GI
Rhizoctonia solani = assay: Fungicidal activity against Rhizoctonia solani grown under potato-saccharose agar assessed as inhibition of mycelial radial growth at 30 mg/l incubated for 72 hrs; assay type: functional; details: read-out: GI
Fusarium oxysporum = assay: Fungicidal activity against Fusarium oxysporum grown under potato-saccharose agar assessed as inhibition of mycelial radial growth at 30 mg/l incubated for 72 hrs; assay type: functional; details: read-out: GI
Fusarium verticillioides = assay: Fungicidal activity against Fusarium moniliforme grown under potato-saccharose agar assessed as inhibition of mycelial radial growth at 30 mg/l incubated for 72 hrs; assay type: functional; details: read-out: GI
Bipolaris sorokiniana = assay: Fungicidal activity against Bipolaris sorokiniana grown under potato-saccharose agar assessed as inhibition of mycelial radial growth at 30 mg/l incubated for 72 hrs; assay type: functional; details: read-out: GI
Sclerotinia sclerotiorum = assay: Fungicidal activity against Sclerotinia sclerotiorum grown under potato-saccharose agar assessed as inhibition of mycelial radial growth at 30 mg/l incubated for 72 hrs; assay type: functional; details: read-out: GI
Jurkat [2] = assay: Induction of apoptosis in human Jurkat cells assessed as viable cells level at 5 uM incubated for 24 hrs by annexin V and Alexa Fluor 488 dye staining based flow cytometry (reference value: 92.408%); assay type: functional
Jurkat [3] = assay: Induction of apoptosis in human Jurkat cells assessed as apoptotic cells level at 5 uM incubated for 24 hrs by annexin V and Alexa Fluor 488 dye staining based flow cytometry (reference value: 4.928%); assay type: functional
Jurkat [4] = assay: Induction of apoptosis in human Jurkat cells assessed as necrotic cells level at 5 uM incubated for 24 hrs by annexin V and Alexa Fluor 488 dye staining based flow cytometry (reference value: 2.616%); assay type: functional
Jurkat [5] = assay: Induction of apoptosis in human Jurkat cells assessed as damaged cells level at 5 uM incubated for 24 hrs by annexin V and Alexa Fluor 488 dye staining based flow cytometry (reference value: 0.048%); assay type: functional
Jurkat [6] = assay: Induction of apoptosis in human Jurkat cells assessed as damaged cells level at 5 uM incubated for 6 hrs by annexin V and Alexa Fluor 488 dye staining based flow cytometry (reference value: 0.07%); assay type: functional
Jurkat [7] = assay: Induction of apoptosis in human Jurkat cells assessed as necrotic cells level at 5 uM incubated for 24 hrs by annexin V and Alexa Fluor 488 dye staining based flow cytometry (reference value: 2.04%); assay type: functional
Jurkat [8] = assay: Induction of apoptosis in human Jurkat cells assessed as viable cells level at 5 uM incubated for 24 hrs by annexin V and Alexa Fluor 488 dye staining based flow cytometry (reference value: 95.27%); assay type: functional
Jurkat [9] = assay: Induction of apoptosis in human Jurkat cells assessed as apoptotic cells level at 5 uM incubated for 24 hrs by annexin V and Alexa Fluor 488 dye staining based flow cytometry (reference value: 2.62%); assay type: functional
[10] = Homo sapiens, HEK293, 72 h, read-out: IC50

Row | SMILES | IC50 (RD) [µM] | IC50 (A549) [µM] | IC50 [1] [µM] | IC50 (MCF7) [µM] | IC50 (HEK293; [10]) [µM] | inhibition of growth at 30 µg/mL (Venturia inaequalis) [%] | inhibition of growth at 30 µg/mL (Rhizoctonia solani) [%] | inhibition of growth at 30 µg/mL (Fusarium oxysporum) [%] | inhibition of growth at 30 µg/mL (Fusarium verticillioides) [%] | inhibition of growth at 30 µg/mL (Bipolaris sorokiniana) [%] | inhibition of growth at 30 µg/mL (Sclerotinia sclerotiorum) [%] | Activity (Jurkat [2]) [%] | Apoptotic cells (Jurkat [3]) [%] | Necrotic cells (Jurkat [4]) [%] | Activity (Jurkat [5]) [%] | Activity (Jurkat [6]) [%] | Activity (Jurkat [7]) [%] | Viable cells (Jurkat [8]) [%] | Apoptotic cells (Jurkat [9]) [%] | IC50 (HEK293; hek293)
1 | CCSC1=NC2C(N(CC)C(=O)N2CC)N1/N=C/C=C/c1ccccc1[N+](=O)[O-] (stereo not drawn) | 2.45 | > 100 | 5.07 | 30.7 | 221 | 10 | 44 | 12 | 22 | 39 | 12 |  |  |  |  |  |  |  |  | 
2 | CCN1C(=O)N(CC)C2C1NC(=S)N2/N=C/C=C/c1ccccc1 (stereo not drawn) | 2.25 | 6.53 | 4.38 | 36.1 | 42.1 | 12 | 42 | 36 | 41 | 19 | 3 |  |  |  |  |  |  |  |  | 
3 | CCN1C(=O)N(CC)C2C1NC(=S)N2/N=C/C=C/c1ccccc1OC (stereo not drawn) | 0.25 | 0.61 | 17.5 | > 100 | 86.1 | 29 | 52 | 21 | 37 | 38 | 10 | 50.468 | 36.66 | 12.796 | 0.076 | 0.1 | 2.82 | 94.06 | 3.02 | 
4 | CCN1C(=O)N(CC)C2C1N=C(SC)N2/N=C/C=C/c1ccccc1OC (stereo not drawn) | 7.97 | 4.79 | 1.09 | 34.6 | 145 | 20 | 65 | 51 | 42 | 47 | 23 |  |  |  |  |  |  |  |  | 
5 | COc1ccccc1/C=C/C=N/N1C(=S)NC2C1N(C)C(=O)N2c1ccccc1 (stereo not drawn) | 0.02 | > 100 | 0.012 | 0.26 | 0.23 |  |  |  |  |  |  | 56.076 | 26.98 | 16.808 | 0.136 | 0.14 | 2.39 | 94.37 | 3.1 | 
6 | CCN1C(=O)N(c2ccccc2)C2NC(=S)N(/N=C/C=C/c3ccccc3OC)C21 (stereo not drawn) | 45.9 | > 100 | 2.12 | 79.1 | 57.5 | 0 | 17 | 1 | 19 | 0 | 12 |  |  |  |  |  |  |  |  | 
7 | CN1C(=O)N(C)C2C1NC(=S)N2/N=C/C=C/c1ccccc1[N+](=O)[O-] (stereo not drawn) | 32.4 | 2.72 | 3.76 | 1.76 |  |  |  |  |  |  |  | 56.128 | 34.62 | 9.164 | 0.088 | 0.06 | 2.16 | 94.6 | 3.18 | Not Active
8 | CCN1C(=O)N(CC)C2C1N=C(SC)N2/N=C/C=C/c1ccccc1 (stereo not drawn) | 24 | 21.4 | 5.47 | 46.6 | 151 | 13 | 60 | 38 | 37 | 49 | 11 |  |  |  |  |  |  |  |  | 
9 | CC[C@@]1(O)C(=O)OCc2c1cc1n(c2=O)Cc2cc3ccccc3nc2-1 [CAMPTOTHECIN] | 4.49 | 8.87 | 12.3 | 13.6 | 54.7 |  |  |  |  |  |  | 37.372 | 36.412 | 26.084 | 0.132 | 0.12 | 3.53 | 63.71 | 32.64 | 
10 | COc1cccc2c1C(=O)c1c(O)c3c(c(O)c1C2=O)C[C@@](O)(C(=O)CO)C[C@@H]3O[C@H]1C[C@H](N)[C@H](O)[C@H](C)O1 [DOXORUBICIN] | 0.53 | 0.53 | 0.19 | 0.56 | 2.1 |  |  |  |  |  |  |  |  |  |  |  |  |  |  | 
